Entries after “also recorded” stand apart in the source; their conditions may differ.
Tests used:
HFD-fed mice [1] = experiment: High-fat diet (HFD)-induced obesity/NAFLD mouse model: body weight, food/water intake, liver size and weight; type: in vivo
Excerpt: (§1) In order to assess the in vivo efficacy of Compound 13-3 in improving obesity, and ameliorating NAFLD/NASH, a previously used modified high-fat diet (HFD) was employed to induce obesity and severe fatty liver disease in mice (Derdak et al. Journal of Hepatology 2013; 58(4):785-91).
(§2) Five-week-old male, C57Bl/6J mice (12-18 per group, Jackson Laboratory, Bar Harbor, Me.) were fed ad libitum with a modified high fat or control diet (Bioserv, Frenchtown, N.J.) for 15 weeks. […] We had verified the efficacy of this diet to induce obesity and NAFLD in various pilot studies. At the end of the 15-week long feeding regimen, this diet caused substantial ALT elevation—indicative of liver injury—in these mice.
(§3) After 15 weeks on the modified HFD, the mice were put on a Compound 13-3 (or control vehicle) dosing regimen, in which the introductory 5 mg/kg (p.o., t.i.w. for the first 3 weeks) dose was followed by the administration of 10 mg/kg (p.o., t.i.w. for additional 5 weeks) therapeutic dose. During the course of the drug treatment, the animals were monitored daily for changes in body weight, food/water intake, and adverse effects.

HFD-fed mice [2] = experiment: HFD-induced NAFLD mouse model: hepatic triglyceride biochemical assay; type: in vivo; details: HFD-fed mice liver (FIG. 6A)
Excerpt: as §2, §3
(§4) This biochemical change is very important, as ectopic fat accumulation has been linked to lipotoxicity and hepatocellular injury. The extent of liver injury has been characterized by measuring serum levels of two liver enzymes ALT (FIG. 6B) and AST (FIG. 6C) (UMASS Mouse Phenotyping Center Analytical Core, Worcester, Mass.) at the time of euthanasia.

HFD-fed mice [3] = experiment: HFD-induced NAFLD mouse model: liver histology (H&E, Masson's trichrome, PAS) and NAFLD Activity Score; type: in vivo
Excerpt: as §1, §2, §3
The pronounced efficacy of Compound 13-3 in improving NAFLD was further supported by microscopical analysis of the harvested liver samples (FIG. 4).
Microscopic evaluation of hematoxylin-eosin (H&E) stained liver slides was performed by an expert pathologist to determine the effect of the drug treatment on the NAFLD Activity Score (NAS), as a primary read-out for the anti-NAFLD efficacy of Compound 13-3. The composite NAS score is frequently used to describe the severity of the characteristic pathological changes seen in NAFLD/NASH (Kleiner D E et al. Hepatology. 2005; 41(6):1313-21), including steatosis, lobular inflammation (FIG. 5A), and hepatocellular ballooning (FIG. 5B).

human HepG2 liver cells = experiment: Intracellular triglyceride content in palmitoleic acid-treated HepG2 cells (biochemical kit); type: cell-based; details: HepG2, 1.6 mM palmitoleic acid in EMEM, 48 hours, 0.1 μM compound vs DMSO (FIG. 1A)
Procedure: A series of in vitro experiments were first carried out with various human hepatocyte cultures. For example, human HepG2 liver cells were incubated with 1.6 mM palmitoleic acid in EMEM medium for 48 hours in the presence of 0.1 μM Compound 13-3 or control vehicle, DMSO. After 48 hours, cells were collected and the intracellular triglyceride content was measured by a biochemical kit (Biovision, Mountain View, Calif.) as described in Derdak et al. J Hepatol. 2013; 58(4):785-91.

CPT1a = experiment: Hepatic gene expression by quantitative real-time PCR in HFD-fed mice; type: in vivo, mouse; details: HFD-fed mice (FIG. 7A)
Excerpt: as §2, §3
(§5) To study the effect of Compound 13-3 on the mediators of fatty acid metabolism, we employed quantitative real-time PCR using commercially available probes to assess mediators of fatty acid metabolism in HFD-fed mice treated with Compound 13-3. As shown in FIGS. 7A-7E, gene expression of some key mediators of fatty acid oxidation such as CPT1a (FIG. 7A), an enzyme that catalyzes the rate-limiting step of fatty acid oxidation in the mitochondrion, of peroxisomal ACOX1 (FIG. 7B) and of FGF21 (FIG. 7C), a recently described hepatokine with pronounced anti-NAFLD and hepatoprotective efficacy (see, Maratos-Flier E Exp Cell Res (2017) 360(1): 2-5; Sonoda J, et al. Horm Mol Biol Clin Investig (2017) 30(2); Xu J, et al. Diabetes (2009) 58(1):250-259; Li H, et al. Diabetes (2012) 61(4): 797-806; Desai B N, et al. Mot Metab (2017) 6(11):1395-1406), were increased by Compound 13-3 treatment in HFD-fed mice. Many of the beneficial metabolic effects are linked to FGF21, and FGF21 itself may further enhance fatty acid oxidation (Xu J, et al. Diabetes (2009) 58(1):250-259; Li H, et al. Diabetes (2012) 61(4):797-806). We, therefore, also measured serum levels of FGF21 using a commercially available ELISA kit.

ACOX1 = experiment: as above; type: in vivo, mouse; details: HFD-fed mice (FIG. 7B)
Excerpt: as §2, §3, §5

FGF21 [4] = experiment: as above; type: in vivo, mouse; details: HFD-fed mice (FIG. 7C)
Excerpt: as §2, §3, §5

FGF21 [5] = experiment: Serum FGF21 ELISA in HFD-fed mice; type: in vivo, mouse; details: ELISA (FIG. 7D)
Excerpt: as §2, §3
To study the effect of Compound 13-3 on the mediators of fatty acid metabolism, we employed quantitative real-time PCR using commercially available probes to assess mediators of fatty acid metabolism in HFD-fed mice treated with Compound 13-3. […] We, therefore, also measured serum levels of FGF21 using a commercially available ELISA kit.

HFD-fed mice [6] = experiment: HFD-induced NAFLD mouse model: serum ALT and AST levels; type: in vivo
Excerpt: as §2, §3, §4

collagen type I, alpha 1 = experiment: Hepatic gene expression by quantitative real-time PCR in HFD-fed mice; type: in vivo, mouse; details: HFD-fed mice liver, quantitative real-time PCR (FIG. 5D)
Excerpt: as §2, §3
Therefore, pharmaceutical compositions based on Compound 13-3 and other compounds of the invention will likely provide a viable treatment of NAFLD and especially NASH.

leptin = experiment: Serum leptin ELISA in HFD-fed mice; type: in vivo, mouse; details: ELISA (FIG. 7E)
Excerpt: as §2, §3
A suppressive effect of exogenous FGF21 on circulating leptin levels has been previously observed in non-human primates. Accordingly, we also measured serum leptin levels using a commercially available ELISA kit.

FABP4 = experiment: Hepatic gene expression in HFD-fed mice; type: in vivo, mouse; details: HFD-fed mice liver (FIG. 8C)
Excerpt: as §2, §3
(§6) FGF21 has also been linked to the suppression of adipogenesis by suppressing hepatic PPAR-γ, FABP4 and CD36 (Xu J, et al. Diabetes (2009) 58(1):250-259). In view of this, we next assessed the expression of these mediators of adipogenesis in the livers of Compound 13-3-treated, HFD-fed mice.

PPAR-γ [7] = experiment: Hepatic gene expression in HFD-fed mice; type: in vivo, mouse; details: HFD-fed mice (FIG. 8A)
Excerpt: as §2, §3, §6

CD36 = experiment: Hepatic gene expression in HFD-fed mice; type: in vivo, mouse; details: HFD-fed mice liver (FIG. 8D)
Excerpt: as §2, §3, §6

PPAR-γ [8] = experiment: Hepatic protein expression by Western-blotting and densitometry in HFD-fed mice; type: in vivo, mouse; details: Western-blotting and densitometry (FIG. 8B)
Excerpt: as §2, §3, §6

## CCN(CC)CCNC(=O)c1c(C)[nH]c(/C=C2\C(=O)Nc3ccc(-c4csc(-c5ccccc5)n4)cc32)c1C [Compound 13-3]
HFD-fed mice [1]; HFD-fed C57Bl/6J mice, 5 mg/kg p.o. t.i.w. 3 weeks then 10 mg/kg p.o. t.i.w. 5 weeks (FIG. 2A)
  change in body weight during treatment: not only prevented additional weight gain in the mice on HFD, but also triggered a gradual weight loss
HFD-fed mice [1]; HFD-fed mice, 5 mg/kg then 10 mg/kg p.o. t.i.w. (FIG. 2C)
  food intake: not linked to decreased food intake
HFD-fed mice [1]; HFD-fed mice, 5 mg/kg then 10 mg/kg p.o. t.i.w. (FIG. 2D)
  water intake: not linked to decreased food intake or water intake
HFD-fed mice [1]; HFD-fed mice, 5 mg/kg then 10 mg/kg p.o. t.i.w., vs vehicle (FIG. 2E, 3A)
  size of the liver (macroscopic overview at euthanasia): markedly decreased the size of the liver; also recorded: essentially comparable to the lean animals
HFD-fed mice [1]; HFD-fed mice, vs vehicle (pale yellow enlarged liver) (FIG. 2E)
  macroscopic appearance of the liver: healthier, darker brown appearance
HFD-fed mice [1]; HFD-fed mice, vs vehicle-treated littermates (FIG. 3A-3C)
  fatty metamorphosis / ectopic fat accumulation in the liver: markedly decreased or prevented ectopic fat accumulation
HFD-fed mice [1]; HFD-fed mice, vs vehicle-treated littermates, at euthanasia (FIG. 3A, 3B)
  liver weight: profoundly decrease liver weight
HFD-fed mice [2]
  hepatic triglyceride content: prevented the HFD-induced steatosis
HFD-fed mice [3]; HFD-fed mice (FIG. 5A)
  HFD-induced steatosis and lobular inflammation (NAS components): suppressed
HFD-fed mice [3]; HFD-fed mice (FIG. 5B)
  HFD-induced hepatocellular ballooning (NAS component): eliminated
HFD-fed mice [3]; HFD-fed mice, vehicle group depleted in zones 2 & 3 (FIG. 4 bottom row)
  hepatic glycogen depletion (Periodic Acid Schiff staining): evidence for hepatic depletion of glycogen was not present
HFD-fed mice [3]; HFD-fed mice, vehicle group showed stage 1 fibrosis (FIG. 4 middle row)
  fibrosis (Masson's trichrome staining): did not exhibit any signs of fibrosis
HFD-fed mice [3]; HFD-fed mice, vs vehicle (FIG. 4 top row)
  H&E histology: disorganized liver architecture, micro- and macrovesicular steatosis, hepatocyte ballooning and inflammation: markedly suppressed
HFD-fed mice [3]; HFD-fed mice, vs vehicle-treated littermates (FIG. 5C)
  NAFLD Activity Score (NAS): substantially lower
Human HepG2 liver cells
  palmitoleic acid-induced increase of intracellular triglyceride content: markedly suppressed
CPT1a
  CPT1a gene expression: increased
ACOX1
  ACOX1 gene expression: increased
FGF21 [4]
  FGF21 gene expression: pronounced elevation
FGF21 [5]
  serum FGF21 level: increased
HFD-fed mice [6]; at euthanasia (FIG. 6B)
  serum ALT: suppresses ALT elevation
HFD-fed mice [6]; at euthanasia (FIG. 6C)
  serum AST: not affected
HFD-fed mice [6]; vs vehicle (FIG. 6D)
  serum AST:ALT ratio: largely prevent the drastic decrease
Collagen type I, alpha 1
  hepatic production (gene expression) of collagen type I, alpha 1: marked decrease
leptin
  serum leptin level (HFD-induced increase): significantly decreased
FABP4
  FABP4 gene expression: decreased
PPAR-γ [7]
  PPAR-γ gene expression in the liver: suppressed
CD36
  CD36 gene expression: decreased
PPAR-γ [8]
  PPAR-γ protein expression in the liver: suppressed
